# US20110166191A1, “3-(2-amino-ethyl)-5-(3-cyclohexyl-propylidene)-thiazolidine-2,4-dione and its derivatives as multiple signaling pathway inhibitors and for the treatment of cancer” (priority 2010, published 2011)
# Key:
# Assay in all cases: In vitro kinase screening
# Assay type in all cases: biochemical
# [1] = biological target: T1, CHK1 (Homo sapiens, UniProt O14757); conditions: CHK1, 10 μM concentration
# T1 construct: Caliper Life Sciences (screening service)
# Method: (§1) Formula II [3-(2-aminoethyl)-5-(3-cyclohexylpropylidene)thiazolidine-2,4-dione] was screened against a panel of kinases at 10 μM concentration by Caliper Life Sciences according to their established protocol.
# [2] = biological target: T2, MEK2 (Homo sapiens, UniProt P36507); conditions: MEK2, 10 μM concentration
# T2 construct: Caliper Life Sciences
# Method: as §1
# [3] = biological target: T3, MSK1 (Homo sapiens, UniProt O75582); conditions: MSK1, 10 μM concentration
# T3 construct: Caliper Life Sciences
# Method: as §1
# [4] = biological target: T4, FGFR1 (Homo sapiens, UniProt P11362); conditions: FGFR1, 10 μM concentration
# T4 construct: Caliper Life Sciences (screening service)
# Method: as §1
# [5] = biological target: T5, CHK2 (Homo sapiens, UniProt O96017); conditions: CHK2, 10 μM concentration
# T5 construct: Caliper Life Sciences (screening service)
# Method: as §1
# [6] = biological target: T6, SGK1 (Homo sapiens, UniProt O00141); conditions: SGK1, 10 μM concentration
# T6 construct: Caliper Life Sciences
# T6 sequence (O00141 whole entry, species assumed): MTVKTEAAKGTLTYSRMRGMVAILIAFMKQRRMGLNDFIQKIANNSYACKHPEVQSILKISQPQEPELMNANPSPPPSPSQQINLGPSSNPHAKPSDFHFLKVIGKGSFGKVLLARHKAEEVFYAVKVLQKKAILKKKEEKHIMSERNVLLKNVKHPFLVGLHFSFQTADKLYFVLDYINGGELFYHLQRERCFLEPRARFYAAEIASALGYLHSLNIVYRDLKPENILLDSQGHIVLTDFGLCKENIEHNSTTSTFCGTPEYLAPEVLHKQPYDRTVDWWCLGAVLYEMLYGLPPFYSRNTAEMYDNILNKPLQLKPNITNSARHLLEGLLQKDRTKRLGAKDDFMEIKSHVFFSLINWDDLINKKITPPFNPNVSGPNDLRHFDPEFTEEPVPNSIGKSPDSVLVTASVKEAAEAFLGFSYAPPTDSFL
# Method: as §1
# [7] = biological target: T7, PIM2 (Homo sapiens, UniProt Q9P1W9); conditions: PIM2, 10 μM concentration
# T7 construct: Caliper Life Sciences
# Method: as §1
# [8] = biological target: T8, PKA (Homo sapiens, UniProt P17612); conditions: 10 μM concentration
# T8 construct: Caliper Life Sciences
# Method: as §1
# [9] = biological target: T9, MST2 (Homo sapiens, UniProt Q13188); conditions: MST2, 10 μM concentration
# T9 construct: Caliper Life Sciences
# Method: as §1
# [10] = biological target: T10, DYRK1a (Homo sapiens, UniProt Q13627); conditions: 10 μM concentration
# T10 construct: Caliper Life Sciences (screening service)
# Method: as §1
# [11] = biological target: T11, p70S6K (Homo sapiens, UniProt P23443); conditions: 10 μM concentration
# T11 construct: Caliper Life Sciences
# Method: as §1
# [12] = biological target: T12, PKCz (Homo sapiens, UniProt Q05513); conditions: 10 μM concentration
# T12 construct: Caliper Life Sciences
# Method: as §1
# [13] = biological target: T13, GSK3b (Homo sapiens, UniProt P49841); conditions: 10 μM concentration
# T13 construct: Caliper Life Sciences (screening service)
# T13 sequence (P49841 whole entry): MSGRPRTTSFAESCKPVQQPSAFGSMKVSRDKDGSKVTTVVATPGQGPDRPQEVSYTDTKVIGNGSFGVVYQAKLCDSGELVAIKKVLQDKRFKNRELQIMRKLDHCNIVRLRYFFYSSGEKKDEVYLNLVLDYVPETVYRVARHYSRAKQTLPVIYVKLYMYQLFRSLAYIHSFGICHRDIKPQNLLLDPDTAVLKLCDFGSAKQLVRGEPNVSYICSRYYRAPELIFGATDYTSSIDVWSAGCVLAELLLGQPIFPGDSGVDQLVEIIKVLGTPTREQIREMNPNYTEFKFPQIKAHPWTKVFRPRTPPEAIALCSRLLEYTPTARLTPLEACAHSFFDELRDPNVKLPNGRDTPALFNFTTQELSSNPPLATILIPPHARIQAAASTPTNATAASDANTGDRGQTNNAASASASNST
# Method: as §1
# [14] = biological target: T14, SRC (Homo sapiens, UniProt P12931); conditions: 10 μM concentration
# T14 construct: purchased Caliper Life Sciences
# Method: as §1
# [15] = biological target: T15, PDK1 (Homo sapiens, UniProt O15530); conditions: PDK1, 10 μM concentration
# T15 construct: Caliper Life Sciences
# Method: as §1
# [16] = tested on: AMPK; conditions: 10 μM concentration
# Method: as §1
# [17] = biological target: T16, MET (Homo sapiens, UniProt P08581); conditions: 10 μM concentration
# T16 construct: Caliper Life Sciences
# Method: as §1
# [18] = biological target: T17, CDK2 (Homo sapiens, UniProt P24941); conditions: CDK2, 10 μM concentration
# T17 construct: Caliper Life Sciences (screening service)
# Method: as §1
# [19] = biological target: T18, FLT3 (Homo sapiens, UniProt P36888); conditions: FLT3, 10 μM concentration
# T18 construct: Caliper Life Sciences (screening service)
# Method: as §1
# [20] = biological target: T19, HGK (Homo sapiens, UniProt O95819); conditions: 10 μM concentration
# T19 construct: Caliper Life Sciences (screening service)
# T19 sequence (O95819 whole entry): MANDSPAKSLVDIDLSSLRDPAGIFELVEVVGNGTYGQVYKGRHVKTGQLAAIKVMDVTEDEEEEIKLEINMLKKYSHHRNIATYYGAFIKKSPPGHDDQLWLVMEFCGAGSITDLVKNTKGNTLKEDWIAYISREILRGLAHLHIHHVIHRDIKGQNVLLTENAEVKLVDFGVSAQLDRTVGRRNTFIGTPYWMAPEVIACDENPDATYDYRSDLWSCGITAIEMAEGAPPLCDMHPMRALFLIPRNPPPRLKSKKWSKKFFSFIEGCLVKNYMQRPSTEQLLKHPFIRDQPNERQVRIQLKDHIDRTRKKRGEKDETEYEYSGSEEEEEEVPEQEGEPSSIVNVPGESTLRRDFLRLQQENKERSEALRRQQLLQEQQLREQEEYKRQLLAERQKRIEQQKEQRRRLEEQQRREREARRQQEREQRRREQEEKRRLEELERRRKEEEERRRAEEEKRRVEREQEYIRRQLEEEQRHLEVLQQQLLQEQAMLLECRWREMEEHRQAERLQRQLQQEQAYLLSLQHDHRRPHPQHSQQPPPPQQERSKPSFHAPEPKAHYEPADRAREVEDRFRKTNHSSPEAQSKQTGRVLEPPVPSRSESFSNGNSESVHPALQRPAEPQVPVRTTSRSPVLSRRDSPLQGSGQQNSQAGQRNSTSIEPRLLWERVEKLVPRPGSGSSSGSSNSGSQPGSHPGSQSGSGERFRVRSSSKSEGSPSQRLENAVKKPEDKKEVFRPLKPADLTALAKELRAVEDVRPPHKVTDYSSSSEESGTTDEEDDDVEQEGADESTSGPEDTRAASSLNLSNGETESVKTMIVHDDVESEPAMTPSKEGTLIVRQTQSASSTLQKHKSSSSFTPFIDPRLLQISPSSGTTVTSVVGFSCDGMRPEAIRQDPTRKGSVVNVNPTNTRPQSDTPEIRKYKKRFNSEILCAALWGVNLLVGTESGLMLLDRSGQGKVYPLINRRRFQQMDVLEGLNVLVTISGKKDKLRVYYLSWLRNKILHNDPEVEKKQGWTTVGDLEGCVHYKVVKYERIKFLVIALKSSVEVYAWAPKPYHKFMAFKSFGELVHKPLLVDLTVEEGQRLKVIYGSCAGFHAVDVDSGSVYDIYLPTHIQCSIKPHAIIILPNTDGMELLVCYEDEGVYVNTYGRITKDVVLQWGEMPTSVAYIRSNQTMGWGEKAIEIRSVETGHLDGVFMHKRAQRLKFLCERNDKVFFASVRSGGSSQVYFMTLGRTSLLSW
# Method: as §1
# [21] = biological target: T20, MAPKAPK2 (Homo sapiens, UniProt P49137); conditions: MAPKAPK2, 10 μM concentration
# T20 construct: Caliper Life Sciences
# Method: as §1
# [22] = biological target: T21, INSR (Homo sapiens, UniProt P06213); conditions: 10 μM concentration
# T21 construct: Caliper Life Sciences (screening service)
# Method: as §1
# [23] = biological target: T22, PKD2 (Homo sapiens, UniProt Q9BZL6); conditions: PKD2, 10 μM concentration
# T22 construct: Caliper Life Sciences
# T22 sequence (Q9BZL6 whole entry): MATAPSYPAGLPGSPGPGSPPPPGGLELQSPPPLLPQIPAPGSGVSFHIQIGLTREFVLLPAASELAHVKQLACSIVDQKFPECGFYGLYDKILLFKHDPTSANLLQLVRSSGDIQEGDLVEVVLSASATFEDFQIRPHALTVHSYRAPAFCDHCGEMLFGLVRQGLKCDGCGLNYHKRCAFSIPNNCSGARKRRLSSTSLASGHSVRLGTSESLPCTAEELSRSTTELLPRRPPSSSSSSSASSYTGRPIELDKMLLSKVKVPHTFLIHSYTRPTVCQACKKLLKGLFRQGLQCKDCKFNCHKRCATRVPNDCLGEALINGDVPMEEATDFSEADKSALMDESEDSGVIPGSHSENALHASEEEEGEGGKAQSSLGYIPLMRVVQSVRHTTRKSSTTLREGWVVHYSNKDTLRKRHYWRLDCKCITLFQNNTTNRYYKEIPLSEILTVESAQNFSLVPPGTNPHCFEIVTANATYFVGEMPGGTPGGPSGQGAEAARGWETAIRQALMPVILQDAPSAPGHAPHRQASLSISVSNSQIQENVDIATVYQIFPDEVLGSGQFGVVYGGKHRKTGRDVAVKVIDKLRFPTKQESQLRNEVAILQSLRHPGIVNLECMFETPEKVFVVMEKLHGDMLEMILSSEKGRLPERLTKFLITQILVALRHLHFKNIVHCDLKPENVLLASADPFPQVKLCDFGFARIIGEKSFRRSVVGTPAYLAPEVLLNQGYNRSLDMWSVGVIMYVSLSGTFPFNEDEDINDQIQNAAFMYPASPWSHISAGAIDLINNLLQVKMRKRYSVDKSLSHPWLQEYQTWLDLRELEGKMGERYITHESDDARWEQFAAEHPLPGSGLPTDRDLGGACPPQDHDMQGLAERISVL
# Method: as §1
# [24] = biological target: T23, MEK1 (Homo sapiens, UniProt Q02750); conditions: MEK1, 10 μM concentration
# T23 construct: Caliper Life Sciences
# Method: as §1
# [25] = biological target: T24, p38a (Homo sapiens, UniProt Q16539); conditions: 10 μM concentration
# T24 construct: Caliper Life Sciences
# Method: as §1
# [26] = biological target: T25, c-TAK1 (Homo sapiens, UniProt P27448); conditions: c-TAK1, 10 μM concentration
# T25 construct: Caliper Life Sciences (screening service)
# Method: as §1
# [27] = biological target: T26, IGF1R (Homo sapiens, UniProt P08069); conditions: 10 μM concentration
# T26 construct: Caliper Life Sciences (screening service)
# Method: as §1
# [28] = biological target: T27, AKT2 (Homo sapiens, UniProt P31751); conditions: AKT2, 10 μM concentration
# T27 construct: Caliper Life Sciences (screening service)
# Method: as §1
# [29] = biological target: T28, AurA (Homo sapiens, UniProt O14965); conditions: 10 μM concentration
# T28 construct: Caliper Life Sciences (screening service)
# Method: as §1
# [30] = biological target: T29, Erk2 (Homo sapiens, UniProt P28482); conditions: Erk2, 10 μM concentration
# T29 construct: Caliper Life Sciences (screening service)
# Method: as §1
# [31] = biological target: T30, MARK1 (Homo sapiens, UniProt Q9P0L2); conditions: MARK1, 10 μM concentration
# T30 construct: Caliper Life Sciences
# Method: as §1
# [32] = biological target: T31, ROCK2 (Homo sapiens, UniProt O75116); conditions: ROCK2, 10 μM concentration
# T31 construct: Caliper Life Sciences
# T31 sequence (O75116 whole entry, species assumed): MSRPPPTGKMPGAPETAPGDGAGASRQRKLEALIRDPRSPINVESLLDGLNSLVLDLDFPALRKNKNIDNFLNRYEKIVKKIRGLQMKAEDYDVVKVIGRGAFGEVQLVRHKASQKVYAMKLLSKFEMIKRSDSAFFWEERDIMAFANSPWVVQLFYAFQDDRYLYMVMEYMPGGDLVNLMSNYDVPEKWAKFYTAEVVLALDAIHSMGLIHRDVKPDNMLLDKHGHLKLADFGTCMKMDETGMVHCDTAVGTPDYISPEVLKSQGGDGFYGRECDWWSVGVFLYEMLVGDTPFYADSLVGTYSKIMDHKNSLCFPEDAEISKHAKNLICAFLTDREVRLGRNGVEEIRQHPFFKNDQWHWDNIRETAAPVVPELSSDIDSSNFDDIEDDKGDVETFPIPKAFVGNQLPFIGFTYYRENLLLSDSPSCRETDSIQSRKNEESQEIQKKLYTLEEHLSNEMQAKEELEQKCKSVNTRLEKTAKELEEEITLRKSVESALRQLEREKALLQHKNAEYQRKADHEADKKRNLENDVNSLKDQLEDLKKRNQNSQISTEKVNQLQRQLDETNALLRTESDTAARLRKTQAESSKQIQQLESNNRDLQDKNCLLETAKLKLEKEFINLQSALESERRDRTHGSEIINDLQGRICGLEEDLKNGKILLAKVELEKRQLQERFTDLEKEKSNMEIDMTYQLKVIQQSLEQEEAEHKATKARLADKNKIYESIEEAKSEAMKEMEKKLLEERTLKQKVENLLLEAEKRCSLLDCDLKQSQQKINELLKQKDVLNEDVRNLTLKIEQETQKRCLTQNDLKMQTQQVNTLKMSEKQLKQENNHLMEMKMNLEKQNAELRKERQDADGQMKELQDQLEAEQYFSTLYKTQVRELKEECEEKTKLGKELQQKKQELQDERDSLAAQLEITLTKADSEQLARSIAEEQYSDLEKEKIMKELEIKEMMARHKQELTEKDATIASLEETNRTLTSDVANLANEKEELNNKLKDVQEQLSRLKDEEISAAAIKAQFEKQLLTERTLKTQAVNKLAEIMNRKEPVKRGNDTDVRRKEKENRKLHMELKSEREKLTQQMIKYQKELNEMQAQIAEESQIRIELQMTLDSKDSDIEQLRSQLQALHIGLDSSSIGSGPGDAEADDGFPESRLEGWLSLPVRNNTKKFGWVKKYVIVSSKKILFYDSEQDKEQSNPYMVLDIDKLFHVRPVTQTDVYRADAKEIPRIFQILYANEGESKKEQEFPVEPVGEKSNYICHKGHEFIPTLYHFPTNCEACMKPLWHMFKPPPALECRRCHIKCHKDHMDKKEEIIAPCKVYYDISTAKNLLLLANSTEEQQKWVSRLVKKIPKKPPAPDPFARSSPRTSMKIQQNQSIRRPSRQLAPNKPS
# Method: as §1
# [33] = biological target: T32, PKGa (Homo sapiens, UniProt Q13976); conditions: 10 μM concentration
# T32 construct: Caliper Life Sciences
# Method: as §1
# [34] = biological target: T33, PRAK (Homo sapiens, UniProt Q8IW41); conditions: 10 μM concentration
# T33 construct: Caliper Life Sciences
# Method: as §1
# [35] = biological target: T34, CAMk4 (Homo sapiens, UniProt Q16566); conditions: CAMk4, 10 μM concentration
# T34 construct: Caliper Life Sciences (screening service)
# Method: as §1
# [36] = biological target: T35, ABL (Homo sapiens, UniProt P00519); conditions: 10 μM concentration
# T35 construct: Caliper Life Sciences (screening service)
# Method: as §1
# T1 sequence (O14757 whole entry): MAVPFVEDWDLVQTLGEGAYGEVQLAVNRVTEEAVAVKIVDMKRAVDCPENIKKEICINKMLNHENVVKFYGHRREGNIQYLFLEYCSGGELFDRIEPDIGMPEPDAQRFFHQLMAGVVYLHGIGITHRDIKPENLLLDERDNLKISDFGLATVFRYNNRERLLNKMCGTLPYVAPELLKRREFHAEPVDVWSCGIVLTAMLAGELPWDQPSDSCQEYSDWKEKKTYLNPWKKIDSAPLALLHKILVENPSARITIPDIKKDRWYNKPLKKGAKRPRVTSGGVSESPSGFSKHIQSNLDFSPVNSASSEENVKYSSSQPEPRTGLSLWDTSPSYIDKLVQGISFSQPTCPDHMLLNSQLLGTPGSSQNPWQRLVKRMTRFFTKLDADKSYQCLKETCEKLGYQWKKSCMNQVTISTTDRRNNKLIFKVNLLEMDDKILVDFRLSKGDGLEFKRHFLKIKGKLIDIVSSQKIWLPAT
structure (smiles),measurement,setting,value
"NCCN1C(=O)S/C(=C\CCC2CCCCC2)C1=O [Example 4, 3-(2-aminoethyl)-5-(3-cyclohexylpropylidene)thiazolidine-2,4-dione]",inhibition at 10 µM,[1],11%
same,inhibition at 10 µM,[2],27%
same,inhibition at 10 µM,[3],6%
same,inhibition at 10 µM,[4],3%
same,inhibition at 10 µM,[5],8%
same,inhibition at 10 µM,[6],14%
same,inhibition at 10 µM,[7],38%
same,inhibition at 10 µM,[8],-3%
same,inhibition at 10 µM,[9],-3%
same,inhibition at 10 µM,[10],-5%
same,inhibition at 10 µM,[11],5%
same,inhibition at 10 µM,[12],-8%
same,inhibition at 10 µM,[13],0%
same,inhibition at 10 µM,[14],2%
same,inhibition at 10 µM,[15],-2%
same,% Inhibition,[16],76%
same,inhibition at 10 µM,[17],-1%
same,inhibition at 10 µM,[18],-2%
same,inhibition at 10 µM,[19],38%
same,inhibition at 10 µM,[20],-1%
same,inhibition at 10 µM,[21],3%
same,inhibition at 10 µM,[22],-2%
same,inhibition at 10 µM,[23],0%
same,inhibition at 10 µM,[24],69%
same,inhibition at 10 µM,[25],-13%
same,inhibition at 10 µM,[26],6%
same,inhibition at 10 µM,[27],-1%
same,inhibition at 10 µM,[28],8%
same,inhibition at 10 µM,[29],-4%
same,inhibition at 10 µM,[30],11%
same,inhibition at 10 µM,[31],0%
same,inhibition at 10 µM,[32],-1%
same,inhibition at 10 µM,[33],-2%
same,inhibition at 10 µM,[34],4%
same,inhibition at 10 µM,[35],71%
same,inhibition at 10 µM,[36],6%
